The values below come from PubChem BioAssay (NCI).

Among the test systems are IGROV1 ovarian; SK-MEL-28 melanoma; RXF 393 renal; DU-145 prostate; TK-10 renal; M14 melanoma; NCI-H460 lung; UACC-257 melanoma; OVCAR-3 ovarian; SNB-19 CNS.
Assay in all cases: NCI-60 cell line screen, 48 h

The structures appear in SMILES notation.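 Interpolation was linear, between the two tested concentrations surrounding the appropriate level; five concentrations were tested over 48 hours in 96-well plates. The concentration for 50% growth inhibition is given as GI50. TGI: total growth inhibition.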

Consider `COc1ccc(-c2nc(-c3nc4ccc(F)cc4[nH]3)c3ccccn23)cc1`, for which the GI50 is 6.63 µM in the assay with IGROV1 ovarian; 22.8 µM with SK-MEL-28 melanoma; 6.05 µM with RXF 393 renal; 10.7 µM with DU-145 prostate; 16.1 µM with TK-10 renal; 12.9 µM in the assay on M14 melanoma. In addition, the GI50 was 6.83 µM with NCI-H460 lung, 9.15 µM in the assay with UACC-257 melanoma, 6.14 µM with OVCAR-3 ovarian and 11.2 µM with SNB-19 CNS. Further, the TGI in the assay on IGROV1 ovarian was 47.2 µM; in the assay on SK-MEL-28 melanoma it was more than 100 µM; in the assay on RXF 393 renal it was 45.3 µM; with DU-145 prostate it was 40.2 µM; in the assay on TK-10 renal, 57.9 µM; with M14 melanoma, more than 100 µM. The TGI was more than 100 µM in the assay on NCI-H460 lung, 57.2 µM in the assay on UACC-257 melanoma, 27.1 µM in the assay on OVCAR-3 ovarian and 58.6 µM in the assay with SNB-19 CNS.
On to `C=CC(=O)Nc1cc(N2CCN(CC)CC2)ccc1Nc1cc(N(C)C(=O)Nc2c(Cl)c(OC)cc(OC)c2Cl)ncn1`, for which the GI50 in the assay on IGROV1 ovarian was 2.58 µM; with SK-MEL-28 melanoma it was 2.03 µM; in the assay on RXF 393 renal it was 2.98 µM; in the assay with DU-145 prostate, 4.27 µM; in the assay on TK-10 renal, 10.6 µM; in the assay with M14 melanoma, 4.85 µM. Also, the GI50 in the assay with NCI-H460 lung was 7.67 µM; with UACC-257 melanoma it was 13.5 µM; in the assay with OVCAR-3 ovarian it was 3.49 µM; in the assay on SNB-19 CNS it was 5.05 µM. For the same compound, the TGI came out at 7.35 µM in the assay on IGROV1 ovarian; 4.53 µM in the assay on SK-MEL-28 melanoma; 9.76 µM in the assay with RXF 393 renal; 16.4 µM in the assay on DU-145 prostate; 26 µM in the assay on TK-10 renal; 18.7 µM in the assay with M14 melanoma. Besides, the TGI came out at 24.7 µM with NCI-H460 lung, 30.1 µM in the assay on UACC-257 melanoma, 15.4 µM in the assay with OVCAR-3 ovarian and 17.5 µM with SNB-19 CNS.
`O=P1(S)OC[C@H]2O[C@@H]3[C@H](F)[C@@H]2OP(O)(=S)OC[C@H]2O[C@H]([C@H](F)[C@@H]2O1)n1cnc2c(ncnc21)NC/C=C/CNc1ncnc2c1ncn23` (some centres not stated): the GI50 is more than 100 µM in the assay on IGROV1 ovarian; more than 100 µM in the assay with SK-MEL-28 melanoma; 0.764 µM with RXF 393 renal; more than 100 µM in the assay with DU-145 prostate; more than 100 µM in the assay with TK-10 renal; more than 100 µM in the assay on M14 melanoma. Also, the GI50 with NCI-H460 lung was more than 100 µM; in the assay on UACC-257 melanoma it was 0.316 µM; with OVCAR-3 ovarian, more than 100 µM; in the assay with SNB-19 CNS it was more than 100 µM. For the same compound, the TGI in the assay on IGROV1 ovarian, with SK-MEL-28 melanoma, in the assay with RXF 393 renal, in the assay on DU-145 prostate, with TK-10 renal and in the assay with M14 melanoma was more than 100 µM throughout. Also, the TGI in the assay with NCI-H460 lung, with UACC-257 melanoma, in the assay on OVCAR-3 ovarian and in the assay on SNB-19 CNS was more than 100 µM each time.
In the case of `C1CC[N-]CC1.CC(=N\O)/C(C)=N/O.CC(=N\O)/C(C)=N/O.OC1[CH-]CCCC1.[Co+2]`, the GI50 in the assay with IGROV1 ovarian is 44.9 µM; in the assay on SK-MEL-28 melanoma, 32.5 µM; in the assay on RXF 393 renal it was 19.2 µM; in the assay on DU-145 prostate it was 69.1 µM; in the assay with TK-10 renal it was 39.8 µM; in the assay on M14 melanoma, 52.8 µM. Moreover, the GI50 in the assay on NCI-H460 lung was 30.8 µM; in the assay on UACC-257 melanoma it was 29.5 µM; with OVCAR-3 ovarian it was 52 µM; with SNB-19 CNS it was more than 100 µM. Further, the TGI in the assay with IGROV1 ovarian was more than 100 µM; with SK-MEL-28 melanoma, more than 100 µM; in the assay on RXF 393 renal, 62.4 µM; with DU-145 prostate, more than 100 µM; in the assay on TK-10 renal it was more than 100 µM; in the assay with M14 melanoma, more than 100 µM. The TGI in the assay on NCI-H460 lung, in the assay with UACC-257 melanoma, in the assay on OVCAR-3 ovarian and in the assay with SNB-19 CNS was more than 100 µM in each case.
In the case of `CCCCCCCCNCCC[C@@H](C)[C@H]1CC[C@H]2[C@@H]3[C@H](OCCCN)C[C@H]4C[C@H](OCCCN)CC[C@]4(C)[C@H]3C[C@H](OCCCN)[C@]12C`, the GI50 is 1.49 µM in the assay with IGROV1 ovarian; 0.776 µM in the assay on SK-MEL-28 melanoma; 2.22 µM with RXF 393 renal; 1.14 µM with DU-145 prostate; 1.79 µM in the assay on TK-10 renal; 1.64 µM in the assay on M14 melanoma. For the same compound, the GI50 is 2.89 µM with UACC-257 melanoma, 5 µM in the assay on OVCAR-3 ovarian and 1.69 µM in the assay on SNB-19 CNS. Also, the TGI turned out to be 3.25 µM in the assay on IGROV1 ovarian; 2.78 µM in the assay on SK-MEL-28 melanoma; 16.4 µM in the assay on RXF 393 renal; 2.35 µM with DU-145 prostate; 7.36 µM with TK-10 renal; 4.87 µM in the assay with M14 melanoma. In addition, the TGI in the assay on NCI-H460 lung is more than 19.8 µM; in the assay with UACC-257 melanoma, 8.64 µM; with OVCAR-3 ovarian, 21.5 µM; in the assay on SNB-19 CNS, 5.24 µM.
For `COC(=O)C1C(O)C(C)C(O)C(C)C=C(C)C2=C3C(=C(C)C(=O)c4c(O)c(c(C)c(OC(C)=O)c43)NC(=O)C(C)=C/C=C\C(C)C(O)C(C)C1O)OCO2` (configuration not stated), the TGI is more than 100 µM in the assay with IGROV1 ovarian; 47.3 µM with SK-MEL-28 melanoma; 89.8 µM with RXF 393 renal; more than 100 µM in the assay with DU-145 prostate; more than 100 µM with TK-10 renal; 68.9 µM in the assay on M14 melanoma. Besides, the TGI with NCI-H460 lung was more than 100 µM; in the assay on UACC-257 melanoma, 37.4 µM; with OVCAR-3 ovarian, 53 µM; in the assay with SNB-19 CNS, more than 100 µM.
On to `O=C1CCC(N2C(=O)c3ccccc3C2=O)C(=O)N1` (configuration not stated), for which the TGI in the assay with IGROV1 ovarian, in the assay on SK-MEL-28 melanoma, in the assay with RXF 393 renal, in the assay on DU-145 prostate, with TK-10 renal and with M14 melanoma was more than 100 µM throughout. Moreover, the TGI in the assay with NCI-H460 lung, in the assay with UACC-257 melanoma, in the assay with OVCAR-3 ovarian and with SNB-19 CNS was more than 100 µM throughout. Further, the GI50 with SK-MEL-28 melanoma, in the assay with TK-10 renal and in the assay with OVCAR-3 ovarian was more than 100 µM throughout.
Regarding `c1ccc(-c2nc(N3CCOCC3)c3c4c(sc3n2)CCCCCC4)nc1`, the GI50 is 3.16 µM in the assay with IGROV1 ovarian; 11 µM in the assay on SK-MEL-28 melanoma; 8.38 µM in the assay on RXF 393 renal; 6.93 µM in the assay with DU-145 prostate; 9.28 µM in the assay on TK-10 renal; 4.17 µM in the assay with M14 melanoma. Besides, the GI50 in the assay with NCI-H460 lung was 3.68 µM; with UACC-257 melanoma it was 10.9 µM; in the assay on OVCAR-3 ovarian, 4.6 µM; in the assay with SNB-19 CNS, 8.36 µM. The TGI is 9.95 µM in the assay on IGROV1 ovarian; 23.2 µM in the assay with SK-MEL-28 melanoma; 25.5 µM in the assay with RXF 393 renal; 19.6 µM in the assay with DU-145 prostate; 25.5 µM in the assay with TK-10 renal; 16.5 µM in the assay on M14 melanoma. Besides, the TGI with NCI-H460 lung worked out at 16 µM; with UACC-257 melanoma, 23.2 µM; in the assay with OVCAR-3 ovarian it was 16.2 µM; in the assay with SNB-19 CNS, 21.6 µM.
